Assay results as given in publication PMC8128909, “Characterization of a new bifunctional endo-1,4-β-xylanase/esterase found in the rumen metagenome” (Scientific Reports, 2021).

Test system: T1, XylR
T1 construct: without predicted 21-residue signal peptide; His6 (C-terminal as printed), pET28a(+), E. coli BL21(DE3); 75 kDa on SDS-PAGE; motifs 159WDVVNEA163, 280TELD283, 624GLSMG628
Assay: spectrophotometric p-nitrophenol release at […] nm, Michaelis-Menten fit
Assay type: biochemical, uncultured bacterium (Nelore cattle rumen metagenome)
Settings: 0.1 M sodium acetate pH 6.5, 37 °C; substrate 0.75 to 5 mM; esterase activity

- Km: 2300 ± 400 µM
Structure (SMILES): CC(=O)Oc1ccc([N+](=O)[O-])cc1 [C2, p-nitrofenyl acetate]
